Source: patent US20250326785A1, “SODIUM SALT AND ETHANOLAMINE SALT OF 23-HYDROXYTORMENTIC ACID” (HUYABIO International, LLC, priority 2024, published 2025)

Columns and labels:
[1] = test system: Adult rats (Sprague Dawley) with MI by LAD ligation; test: Rat myocardial infarction model: cardiac function by echocardiography; assay type: in vivo
From the text: (§1) Animal Model and Myocardial Infarction: Adult rats (Sprague Dawley (SD), body weight, -250 g) were used to generate a model with MI by LAD ligation of the heart as described in the previous study (Chongyu Zhang, Meng-Hsuan Hsieh, Song-Yi Wu, Shu-Hong Li, Jun Wu, Shi-Ming Liu, Hao-Ji Wei, Richard D. Weisel, Hsing-Wen Sung, Ren-Ke Li, “A self-doping conductive polymer hydrogel that can restore electrical impulse propagation at myocardial infarct to prevent cardiac arrhythmia and preserve ventricular function,” Biomaterials, Volume 231, 2020, 119672, ISSN 0142-9612). In brief, each rat was pre-medicated with 5% isoflurane in a chamber.
The heart was then exposed through a left anterolateral thoracotomy incision. […] Sham animals was treated identically except that the suture was passed through the myocardium beneath the LAD without ligation. The incision was then closed in layers using 3-0 Vicryl suture and 3-0 silk for the skin. Post-surgery treatment followed per UHN ARC requirement with antibiotics (Duplocillin LA, 15,000 IU/kg, I.M.) and analgesics (Buprenorphrine, 0.03 mg/Kg, SC), and the animals recovered from anesthesia in a warmed environment, under continuous monitoring and care for 1-2 hours.
(§2) The selected rats having similar FS were randomly divided into 6 groups: (1) Negative control group (treated with 40% SBCD); (2) Positive control group (with HBI-3802, 2 mg/kg /day); (3) Dose 1 (HBI-3808 2 mg/kg/day); (4) Dose 2 (HBI-3808 0.64 mg/kg day); (5) Dose 3 (HBI-3808 0.2 mg/kg/day); and (6) Sham control (No myocardial infarction and treated with 40% SBCD).
Treatments: The rats were treated by gastric gavage daily starting 6 days after MI for 2 weeks (Turner PV, Vaughn E, Sunohara-Neilson J, Ovari J, Leri F, “Oral gavage in rats: animal welfare evaluation,” J. Am. Assoc. Lab. Anim. Sci., 2012 Jan; 51(1): pp. 25-30. PMID: 22330864; PMCID: PMC3276962) as described in Table 18. The same volume of vehicle (1 mL/rat/day) was given to the rats in sham control group. Ten rats were studied in each group (N=10/group). The schematic plan is depicted in FIG. 35.
Oral Treatment: Six days after permanent LAD ligation, the selected rats received the first daily treatment. HBI-3808 (at 1 of the 3 doses) or 3802 at 2 mg/kg/day (1 ml/rat/day) delivered by gastric gavage daily for 14 days (2). 40% SB-CD alone (1 ml/rat/day) was similarly administered to rats in the control and sham groups.
Measurement of Cardiac Function: Cardiac function was evaluated by echocardiography prior to LAD ligation, prior to treatment (6 days post myocardial infarction), and at 7- and 21-days post first treatment (13 and 27 days post myocardial infarction). The end-point cardiac function was also evaluated using a pressure-volume catheter on Day 21 after first treatment (27 days post myocardial infarction).
Echocardiography: Each rat was pre-medicated with isoflurane in a chamber, and anesthesia was maintained during measurement with 2.5% isoflurane delivered using a nose cone. Echocardiographic examinations were performed using a GE Vivid-7 System with a 10S transducer. Depth was set at 2 cm. Short-axis views were obtained using the parasternal approach.
Left ventricular (LV) dimensions [end-diastolic dimension (LVEDD) and end-systolic dimension (LVESD)] from M mode at short axis views of the mid-level LV. Fractional shortening (% FS) was calculated using the equation: [(LVEDD−LVESD)/LVEDD]×100. Ejection fraction (% EF) was calculated using the equation: [(LVEDD^3−LVESD^3)/LVEDD^3]×100.

[2] = test system: Adult rats (Sprague Dawley) with MI by LAD ligation; test: Rat myocardial infarction model: morphological studies (scar area and thickness, computed planimetry); assay type: in vivo; conditions: for scar areas: p<0.05 and 0.01 respectively
From the text: as §1, §2
Morphological Studies: After cardiac functional measurements, the animals were euthanized. The hearts were rapidly excised, fixed with 10% formaldehyde for 7 days, sliced into 2 mm thick slices, and photographed.
Cross-sectional areas of the left ventricular free wall (LVFW) and scar tissue were measured using computed planimetry. Surface areas of the epicardial LVFW and scar tissue were measured as the sum of the epicardial length multiplied by the slice thickness (2 mm). The surface area percentage of scar tissue in the LVFW was calculated as follows: [(epicardial scar area)/(epicardial LVFW area)×100]. The thickness of scar area was presented as an average of wall thickness measured at the middle and at each edge of the scar from the slice having the thinnest scar.

[3] = 0.64 mg/kg/day, compared to 0.2 mg/kg HBI-3808, p<0.02
[4] = 2 mg/kg/day, 21 days after treatment, p<0.01
[5] = 0.2 mg/kg/day, control vs treated
[6] = 0.64 mg/kg/day, control vs treated

## C[C@@H]1CC[C@]2(C(=O)O)CC[C@]3(C)C(=CCC4[C@@]5(C)C[C@@H](O)[C@H](O)[C@@](C)(CO)C5CC[C@]43C)C2[C@]1(C)O (stereo partly drawn) [HBI-3808, 23-hydroxytormentic acid]
[1]; 0.16 mg of HBI-3808
  difference of cardiac function (EF) Days 27 vs 6 post infarction: showed improvement in cardiac function compared with Day 6
[1]; 0.2 mg/kg/day
  difference of cardiac function (EF) Days 27 vs 6 post infarction: prevented further deterioration of cardiac dysfunction
[1]; 0.2 mg/kg/day, vs control at 21 days after treatment, p<0.01
  Left ventricular end systolic dimension (LVESD): smaller LVESD compared with control group
[1]; 0.2 mg/kg/day, vs control over 21 days, p<0.01
  Ejection fraction (EF) / cardiac function: better cardiac function than the control group
[1]; 0.2 mg/kg/day, vs control, p<0.01
  Fractional shortening (FS) / cardiac function: better function compared with the control group
[1]; 0.64 mg/kg/day
  systolic dilation between Day 6 and Day 21: reversal in systolic dilation
[1]; [3]
  Ejection fraction (EF): improved EF
  Fractional shortening (FS) / cardiac function: improved cardiac function
[1]; 2 mg/kg/day
  diastolic dilation between Day 6 and 21: no diastolic dilation
  difference of cardiac function (EF) Days 27 vs 6 post infarction: improvement in cardiac function compared with Day 6, which was significantly illustrated
  efficacy compared with HBI-3802: greater efficacy compared with HBI-3802
  systolic dilation between Day 6 and Day 21: reversal in systolic dilation
[1]; 2 mg/kg/day gastric gavage 14 days from day 6 post MI, vs 0.64 and 0.2 mg/kg HBI-3808 and control
  Ejection fraction (EF) after treatment: increased significantly
[1]; 2 mg/kg/day oral
  cardiac function (conclusion): improved both diastolic and systolic function
[1]; [4]
  cardiac function (EF) compared with 2 mg/kg HBI-3802 group: improvement in cardiac function
  cardiac function (FS) compared with 2 mg/kg HBI-3802 group: improvement in cardiac function
[1]; 2 mg/kg/day, vs 2 mg/kg HBI-3802, 0.64 and 0.2 mg/kg HBI-3808 and control, p<0.01
  Left ventricular end systolic dimension (LVESD): smaller
[1]; 2 mg/kg/day, vs 0.64, 0.2 mg/kg and control groups, p<0.01
  Left ventricular end diastolic dimension (LVEDD): smaller
[1]; 2 mg/kg/day, vs 0.64 and 0.2 mg/kg HBI-3808 and control
  Fractional shortening (FS): increased FS significantly
[1]; 0.64 or 0.2 mg/kg/day
  improvement of cardiac function (conclusion): lower-magnitude improvement of cardiac function
[1]; 2, 0.64, 0.2 mg/kg/day
  dose response of cardiac function restoration: had a dose response
[2]; [5]
  scar thickness: thinner in the control group
  scar areas: larger in the control group
[2]; [6]
  scar thickness: thinner in the control group
  scar areas: larger in the control group
[2]; 2 mg/kg/day, 21 days after first treatment
  scar thickness: thinner in the control group
[2]; 2 mg/kg/day, 21 days after first treatment, p<0.01
  scar (infarct) areas: smaller infarct areas than the 2 mg/kg HBI-3802 group
